Assay results reported in ChEMBL document CHEMBL1201862, “PubChem BioAssay data set” (2004).
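Growth conditions: 96-well plates. Treatment: test compound, 48 hours, 5 concentrations. Analysis: linear interpolation between bracketing concentrations; unreached endpoints set to highest concentration. Abbreviation: GI50, concentration required for 50% inhibition of growth.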 The source made the active and inactive calls. No stated cut-off is given here; in the data, active = GI50 up to about 1.1 µM and inactive = higher.

Columns and labels:
Experiment in all cases: NCI tumour cell line growth inhibition, 48 h
SN12C = tested on: SN12C
IGROV-1 = tested on: IGROV-1
U-251 = tested on: U-251
OVCAR-3 = tested on: OVCAR-3
SF-295 = tested on: SF-295
SR = tested on: SR
RXF 393 = tested on: RXF 393
BT-549 = tested on: BT-549
Malme-3M = tested on: Malme-3M
CAKI-1 = tested on: CAKI-1
COLO 205 = tested on: COLO 205
NCI-H23 = tested on: NCI-H23
HCT-15 = tested on: HCT-15
CCRF-CEM = tested on: CCRF-CEM
DU-145 = tested on: DU-145
OVCAR-4 = tested on: OVCAR-4
NCI-H226 = tested on: NCI-H226
786-0 = tested on: 786-0
SK-MEL-5 = tested on: SK-MEL-5
Hs-578T = tested on: Hs-578T
MDA-MB-231 = tested on: MDA-MB-231
MDA-MB-435 = tested on: MDA-MB-435
HCT-116 = tested on: HCT-116
ACHN = tested on: ACHN
TK-10 = tested on: TK-10
SNB-19 = tested on: SNB-19
HT-29 = tested on: HT-29
HOP-92 = tested on: HOP-92
SF-539 = tested on: SF-539
A498 = tested on: A498
NCI-H522 = tested on: NCI-H522
SNB-75 = tested on: SNB-75
OVCAR-8 = tested on: OVCAR-8
SF-268 = tested on: SF-268
SK-MEL-28 = tested on: SK-MEL-28
PC-3 = tested on: PC-3
LOX IMVI = tested on: LOX IMVI
SK-MEL-2 = tested on: SK-MEL-2
A549 = tested on: A549
HCC 2998 = tested on: HCC 2998
UACC-257 = tested on: UACC-257
OVCAR-5 = tested on: OVCAR-5
NCI-H460 = tested on: NCI-H460
UO-31 = tested on: UO-31
MDA-N = tested on: MDA-N
EKVX = tested on: EKVX
M14 = tested on: M14
MCF7 = tested on: MCF7
SW-620 = tested on: SW-620
NCI/ADR-RES = tested on: NCI/ADR-RES
SK-OV-3 = tested on: SK-OV-3
HOP-62 = tested on: HOP-62
K562 = tested on: K562
UACC-62 = tested on: UACC-62
MOLT-4 = tested on: MOLT-4
RPMI-8226 = tested on: RPMI-8226
HL-60 = tested on: HL-60
KM12 = tested on: KM12

O=C1NC2=NN=C(c3ccc(Br)cc3)CN2NC12c1ccccc1-c1ccccc12
GI50 (SN12C): > 100 µM (inactive)
GI50 (IGROV-1): > 100 µM (inactive)
GI50 (U-251): > 100 µM (inactive)
GI50 (OVCAR-3): > 100 µM (inactive)
GI50 (SF-295): > 100 µM (inactive)
GI50 (SR): 69.2 µM (inactive)
GI50 (RXF 393): > 100 µM (inactive)
GI50 (BT-549): > 100 µM (inactive)
GI50 (Malme-3M): > 100 µM (inactive)
GI50 (CAKI-1): > 100 µM (inactive)
GI50 (COLO 205): > 100 µM (inactive)
GI50 (NCI-H23): > 100 µM (inactive)
GI50 (HCT-15): > 100 µM
GI50 (CCRF-CEM): 3.05 µM (inactive)
GI50 (DU-145): > 100 µM (inactive)
GI50 (OVCAR-4): > 100 µM (inactive)
GI50 (NCI-H226): > 100 µM (inactive)
GI50 (786-0): > 100 µM (inactive)
GI50 (SK-MEL-5): > 100 µM (inactive)
GI50 (Hs-578T): 37 µM (inactive)
GI50 (MDA-MB-231): > 100 µM (inactive)
GI50 (MDA-MB-435): > 100 µM (inactive)
GI50 (HCT-116): > 100 µM (inactive)
GI50 (ACHN): > 100 µM (inactive)
GI50 (TK-10): > 100 µM (inactive)
GI50 (SNB-19): > 100 µM (inactive)
GI50 (HT-29): > 100 µM (inactive)
GI50 (HOP-92): > 100 µM (inactive)
GI50 (SF-539): > 100 µM (inactive)
GI50 (A498): > 100 µM (inactive)
GI50 (NCI-H522): > 100 µM (inactive)
GI50 (SNB-75): > 100 µM (inactive)
GI50 (OVCAR-8): > 100 µM (inactive)
GI50 (SF-268): > 100 µM (inactive)
GI50 (SK-MEL-28): > 100 µM (inactive)
GI50 (PC-3): > 100 µM (inactive)
GI50 (LOX IMVI): > 100 µM (inactive)
GI50 (SK-MEL-2): > 100 µM (inactive)
GI50 (A549): > 100 µM (inactive)
GI50 (HCC 2998): > 100 µM (inactive)
GI50 (UACC-257): > 100 µM (inactive)
GI50 (OVCAR-5): > 100 µM (inactive)
GI50 (NCI-H460): > 100 µM (inactive)
GI50 (UO-31): > 100 µM (inactive)
GI50 (MDA-N): > 100 µM (inactive)
GI50 (EKVX): > 100 µM (inactive)
GI50 (M14): > 100 µM (inactive)
GI50 (MCF7): 73.3 µM (inactive)
GI50 (SW-620): > 100 µM (inactive)
GI50 (NCI/ADR-RES): > 100 µM (inactive)
GI50 (SK-OV-3): > 100 µM (inactive)
GI50 (HOP-62): > 100 µM (inactive)
GI50 (K562): > 100 µM (inactive)
GI50 (UACC-62): > 100 µM (inactive)

COc1ccc(/C=C/c2sc3ccccc3[n+]2CCCCI)cc1OC
GI50 (SN12C): > 10 µM (inactive)
GI50 (IGROV-1): > 10 µM (inactive)
GI50 (U-251): 6.67 µM (inactive)
GI50 (OVCAR-3): 5.47 µM (inactive)
GI50 (SF-295): > 10 µM (inactive)
GI50 (RXF 393): > 10 µM (inactive)
GI50 (MOLT-4): 5.87 µM (inactive)
GI50 (BT-549): > 10 µM (inactive)
GI50 (Malme-3M): 3.01 µM (inactive)
GI50 (CAKI-1): > 10 µM (inactive)
GI50 (NCI-H23): > 10 µM (inactive)
GI50 (HCT-15): > 10 µM
GI50 (CCRF-CEM): 3.49 µM (inactive)
GI50 (DU-145): > 10 µM (inactive)
GI50 (OVCAR-4): > 10 µM (inactive)
GI50 (NCI-H226): > 10 µM (inactive)
GI50 (786-0): > 10 µM (inactive)
GI50 (SK-MEL-5): 5.55 µM (inactive)
GI50 (Hs-578T): > 10 µM (inactive)
GI50 (MDA-MB-231): > 10 µM (inactive)
GI50 (MDA-MB-435): 4.57 µM (inactive)
GI50 (HCT-116): 4.36 µM (inactive)
GI50 (ACHN): > 10 µM (inactive)
GI50 (TK-10): > 10 µM (inactive)
GI50 (SNB-19): > 10 µM (inactive)
GI50 (HT-29): > 10 µM (inactive)
GI50 (RPMI-8226): 7.33 µM (inactive)
GI50 (HOP-92): 9.53 µM (inactive)
GI50 (SF-539): > 10 µM (inactive)
GI50 (A498): > 10 µM (inactive)
GI50 (HL-60): 4.46 µM (inactive)
GI50 (NCI-H522): 8.87 µM (inactive)
GI50 (SNB-75): 5.64 µM (inactive)
GI50 (OVCAR-8): 4.61 µM (inactive)
GI50 (SF-268): > 10 µM (inactive)
GI50 (KM12): 6.25 µM (inactive)
GI50 (SK-MEL-28): > 10 µM (inactive)
GI50 (PC-3): 3.33 µM (inactive)
GI50 (LOX IMVI): > 10 µM (inactive)
GI50 (SK-MEL-2): 3.61 µM (inactive)
GI50 (A549): > 10 µM (inactive)
GI50 (HCC 2998): > 10 µM (inactive)
GI50 (UACC-257): 5.33 µM (inactive)
GI50 (OVCAR-5): > 10 µM (inactive)
GI50 (NCI-H460): > 10 µM (inactive)
GI50 (UO-31): > 10 µM (inactive)
GI50 (MDA-N): 5.97 µM (inactive)
GI50 (EKVX): > 10 µM (inactive)
GI50 (M14): > 10 µM (inactive)
GI50 (MCF7): > 10 µM (inactive)
GI50 (SW-620): 7.01 µM (inactive)
GI50 (NCI/ADR-RES): > 10 µM (inactive)
GI50 (SK-OV-3): > 10 µM (inactive)
GI50 (HOP-62): > 10 µM (inactive)
GI50 (K562): 3.25 µM (inactive)
GI50 (UACC-62): 6.32 µM (inactive)

O=C(O)CC(NC(=O)C(F)(F)F)C(=O)NC1Cc2ccccc2OC1=O (centres undefined)
GI50 (SN12C): > 100 µM (inactive)
GI50 (IGROV-1): > 100 µM (inactive)
GI50 (U-251): > 100 µM (inactive)
GI50 (OVCAR-3): > 100 µM (inactive)
GI50 (SF-295): > 100 µM (inactive)
GI50 (SR): > 100 µM (inactive)
GI50 (RXF 393): > 100 µM (inactive)
GI50 (MOLT-4): > 100 µM (inactive)
GI50 (BT-549): > 100 µM (inactive)
GI50 (Malme-3M): > 100 µM (inactive)
GI50 (CAKI-1): > 100 µM (inactive)
GI50 (NCI-H23): > 100 µM (inactive)
GI50 (HCT-15): > 100 µM
GI50 (DU-145): > 100 µM (inactive)
GI50 (NCI-H226): > 100 µM (inactive)
GI50 (786-0): > 100 µM (inactive)
GI50 (SK-MEL-5): > 100 µM (inactive)
GI50 (Hs-578T): > 100 µM (inactive)
GI50 (MDA-MB-435): > 100 µM (inactive)
GI50 (ACHN): > 100 µM (inactive)
GI50 (TK-10): > 100 µM (inactive)
GI50 (SNB-19): > 100 µM (inactive)
GI50 (HT-29): > 100 µM (inactive)
GI50 (RPMI-8226): > 100 µM (inactive)
GI50 (SF-539): > 100 µM (inactive)
GI50 (NCI-H522): > 100 µM (inactive)
GI50 (SNB-75): > 100 µM (inactive)
GI50 (OVCAR-8): > 100 µM (inactive)
GI50 (SF-268): > 100 µM (inactive)
GI50 (KM12): > 100 µM (inactive)
GI50 (SK-MEL-28): > 100 µM (inactive)
GI50 (PC-3): > 100 µM (inactive)
GI50 (SK-MEL-2): > 100 µM (inactive)
GI50 (A549): > 100 µM (inactive)
GI50 (HCC 2998): > 100 µM (inactive)
GI50 (UACC-257): > 100 µM (inactive)
GI50 (OVCAR-5): > 100 µM (inactive)
GI50 (NCI-H460): > 100 µM (inactive)
GI50 (UO-31): > 100 µM (inactive)
GI50 (MDA-N): > 100 µM (inactive)
GI50 (EKVX): > 100 µM (inactive)
GI50 (M14): > 100 µM (inactive)
GI50 (MCF7): > 100 µM (inactive)
GI50 (SW-620): > 100 µM (inactive)
GI50 (NCI/ADR-RES): > 100 µM (inactive)
GI50 (SK-OV-3): > 100 µM (inactive)
GI50 (HOP-62): > 100 µM (inactive)
GI50 (K562): > 100 µM (inactive)
GI50 (UACC-62): > 100 µM (inactive)
